Values after ≈ are worked out from the molar mass of the structure shown.
Columns and labels:
Experiment in all cases: minimum inhibitory concentration (ETEST)
Neisseria meningitidis = test system: Neisseria meningitidis
Method: (§1)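 Oropharyngeal Neisseria isolates from MSM and employees in Belgium were identified to species by MALDI-TOF MS. MICs of azithromycin, ceftriaxone and ciprofloxacin were determined by ETEST on GC agar after 24 h at 36.5 °C and 5-7% CO2, in mg/L. Values beyond the strip range are reported as >256 (azithromycin) or <0.016 (ceftriaxone); isolates that did not grow are NA.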

Neisseria elongata = conditions: population: general population, antibiotic use in previous 6 months: No
Method: as §1

Neisseria cinerea = conditions: population: general population, antibiotic use in previous 6 months: No
Method: as §1

Neisseria bacilliformis = conditions: isolate id (sample isolate): Co000780_5; population: general population; antibiotic use in previous 6 months: No
Method: as §1

Neisseria oralis = conditions: population: general population, antibiotic use in previous 6 months: No
Method: as §1

Neisseria mucosa/macacae = test system: Neisseria mucosa/macacae
Method: as §1

Neisseria lactamica = conditions: population: general population, antibiotic use in previous 6 months: No
Method: as §1

CO/N=C(\C(=O)N[C@@H]1C(=O)N2C(C(=O)O)=C(CSc3nc(=O)c(O)nn3C)CS[C@H]12)c1csc(N)n1 [ceftriaxone]
Conditions | minimum inhibitory concentration [µg/mL]
Neisseria meningitidis, isolate id (sample isolate): 19040471_1, population: MSM, antibiotic use in previous 6 months: No | < 0.016
Neisseria meningitidis, isolate id (sample isolate): 19040855_1, population: MSM, antibiotic use in previous 6 months: No | < 0.016
Neisseria meningitidis, isolate id (sample isolate): 19040874_2, population: MSM, antibiotic use in previous 6 months: No | 0.016 (≈ 0.0289 µM)
Neisseria meningitidis, isolate id (sample isolate): 19040900_2, population: MSM, antibiotic use in previous 6 months: No | 0.023 (≈ 0.0415 µM)
Neisseria meningitidis, isolate id (sample isolate): 19042150_2, population: MSM, antibiotic use in previous 6 months: Yes | < 0.016
Neisseria meningitidis, isolate id (sample isolate): 19042756_3, population: MSM, antibiotic use in previous 6 months: Yes | < 0.016
Neisseria meningitidis, isolate id (sample isolate): 19043201_1, population: MSM, antibiotic use in previous 6 months: No | < 0.016
Neisseria meningitidis, isolate id (sample isolate): 19043201_2, population: MSM, antibiotic use in previous 6 months: No | < 0.016
Neisseria meningitidis, isolate id (sample isolate): 19043274_1, population: MSM, antibiotic use in previous 6 months: Yes | < 0.016
Neisseria meningitidis, isolate id (sample isolate): 19043274_2, population: MSM, antibiotic use in previous 6 months: Yes | 0.016 (≈ 0.0289 µM)
Neisseria meningitidis, isolate id (sample isolate): 19051853_1, population: MSM, antibiotic use in previous 6 months: No | < 0.016
Neisseria meningitidis, isolate id (sample isolate): 19052394_3, population: MSM, antibiotic use in previous 6 months: Yes | < 0.016
Neisseria meningitidis, isolate id (sample isolate): 19052434_1, population: MSM, antibiotic use in previous 6 months: Yes | < 0.016
Neisseria meningitidis, isolate id (sample isolate): 19060069_1, population: MSM, antibiotic use in previous 6 months: Yes | 0.064 (≈ 0.115 µM)
Neisseria meningitidis, isolate id (sample isolate): 19060069_2, population: MSM, antibiotic use in previous 6 months: Yes | 0.064 (≈ 0.115 µM)
Neisseria meningitidis, isolate id (sample isolate): 19060089_2, population: MSM, antibiotic use in previous 6 months: Yes | < 0.016
Neisseria meningitidis, isolate id (sample isolate): 19061666_1, population: MSM, antibiotic use in previous 6 months: Yes | 1 (≈ 1.8 µM)
Neisseria meningitidis, isolate id (sample isolate): 19062990_1, population: MSM, antibiotic use in previous 6 months: Yes | < 0.016
Neisseria meningitidis, isolate id (sample isolate): 19070019_2, population: MSM, antibiotic use in previous 6 months: No | 0.047 (≈ 0.0847 µM)
Neisseria meningitidis, isolate id (sample isolate): 19070019_4, population: MSM, antibiotic use in previous 6 months: No | 0.064 (≈ 0.115 µM)
Neisseria meningitidis, isolate id (sample isolate): 19070047_1, population: MSM, antibiotic use in previous 6 months: No | < 0.016
Neisseria meningitidis, isolate id (sample isolate): 19082621_2, population: MSM, antibiotic use in previous 6 months: No | < 0.016
Neisseria meningitidis, isolate id (sample isolate): 19091461_1, population: MSM, antibiotic use in previous 6 months: No | < 0.016
Neisseria meningitidis, isolate id (sample isolate): 19091461_2, population: MSM, antibiotic use in previous 6 months: No | < 0.016
Neisseria meningitidis, isolate id (sample isolate): 19091973_1, population: MSM, antibiotic use in previous 6 months: No | < 0.016
Neisseria meningitidis, isolate id (sample isolate): 19092429_3, population: MSM, antibiotic use in previous 6 months: No | < 0.016
Neisseria meningitidis, isolate id (sample isolate): 19103457_1, population: MSM, antibiotic use in previous 6 months: No | < 0.016
Neisseria meningitidis, isolate id (sample isolate): 19103457_4, population: MSM, antibiotic use in previous 6 months: No | < 0.016
Neisseria meningitidis, isolate id (sample isolate): 19110394_1, population: MSM, antibiotic use in previous 6 months: No | < 0.016
Neisseria meningitidis, isolate id (sample isolate): 19113049_3, population: MSM, antibiotic use in previous 6 months: No | < 0.016
Neisseria meningitidis, isolate id (sample isolate): 19113049_6, population: MSM, antibiotic use in previous 6 months: No | < 0.016
Neisseria meningitidis, isolate id (sample isolate): Co000765_1, population: general population, antibiotic use in previous 6 months: No | < 0.016
Neisseria meningitidis, isolate id (sample isolate): Co000790_1, population: general population, antibiotic use in previous 6 months: No | < 0.016
Neisseria meningitidis, isolate id (sample isolate): Co000790_3, population: general population, antibiotic use in previous 6 months: No | < 0.016
Neisseria mucosa/macacae, isolate id (sample isolate): 19041762_2, population: MSM, antibiotic use in previous 6 months: Yes | 0.032 (≈ 0.0577 µM)
Neisseria mucosa/macacae, isolate id (sample isolate): 19051904_1, population: MSM, antibiotic use in previous 6 months: Yes | 0.047 (≈ 0.0847 µM)
Neisseria mucosa/macacae, isolate id (sample isolate): 19052394_2, population: MSM, antibiotic use in previous 6 months: Yes | 0.032 (≈ 0.0577 µM)
Neisseria mucosa/macacae, isolate id (sample isolate): 19062968_1, population: MSM, antibiotic use in previous 6 months: Yes | 0.064 (≈ 0.115 µM)
Neisseria mucosa/macacae, isolate id (sample isolate): 19081774_2, population: MSM, antibiotic use in previous 6 months: No | 0.094 (≈ 0.169 µM)
Neisseria mucosa/macacae, isolate id (sample isolate): 19111422_4, population: MSM, antibiotic use in previous 6 months: No | 0.032 (≈ 0.0577 µM)
Neisseria mucosa/macacae, isolate id (sample isolate): 19111422_7, population: MSM, antibiotic use in previous 6 months: No | 0.032 (≈ 0.0577 µM)
Neisseria mucosa/macacae, isolate id (sample isolate): Co000770_5, population: general population, antibiotic use in previous 6 months: No | 0.047 (≈ 0.0847 µM)
Neisseria mucosa/macacae, isolate id (sample isolate): Co000771_4, population: general population, antibiotic use in previous 6 months: No | 0.064 (≈ 0.115 µM)
Neisseria mucosa/macacae, isolate id (sample isolate): Co000772_3, population: general population, antibiotic use in previous 6 months: No | 0.032 (≈ 0.0577 µM)
Neisseria mucosa/macacae, isolate id (sample isolate): Co000773_3, population: general population, antibiotic use in previous 6 months: No | 0.032 (≈ 0.0577 µM)
Neisseria mucosa/macacae, isolate id (sample isolate): Co000779_1, population: general population, antibiotic use in previous 6 months: No | 0.125 (≈ 0.225 µM)
Neisseria mucosa/macacae, isolate id (sample isolate): Co000783_3, population: general population, antibiotic use in previous 6 months: No | 0.032 (≈ 0.0577 µM)
Neisseria mucosa/macacae, isolate id (sample isolate): Co000783_6, population: general population, antibiotic use in previous 6 months: No | 0.032 (≈ 0.0577 µM)
Neisseria mucosa/macacae, isolate id (sample isolate): Co000787_3, population: general population, antibiotic use in previous 6 months: No | 0.094 (≈ 0.169 µM)
Neisseria mucosa/macacae, isolate id (sample isolate): Co000788_1, population: general population, antibiotic use in previous 6 months: No | 0.032 (≈ 0.0577 µM)
Neisseria mucosa/macacae, isolate id (sample isolate): Co000788_4, population: general population, antibiotic use in previous 6 months: No | 0.032 (≈ 0.0577 µM)

Conditions | minimum inhibitory concentration [µg/mL]
Neisseria cinerea, isolate id (sample isolate): Co000769_3 | < 0.016
Neisseria cinerea, isolate id (sample isolate): Co000776_4 | < 0.016
Neisseria cinerea, isolate id (sample isolate): Co000776_5 | < 0.016
Neisseria cinerea, isolate id (sample isolate): Co000782_1 | < 0.016
Neisseria elongata, isolate id (sample isolate): Co000767_3 | 0.19 (≈ 0.343 µM)
Neisseria elongata, isolate id (sample isolate): Co000780_1 | 0.047 (≈ 0.0847 µM)
Neisseria elongata, isolate id (sample isolate): Co000783_4 | 0.023 (≈ 0.0415 µM)
Neisseria lactamica, isolate id (sample isolate): Co000761_1 | < 0.016
Neisseria lactamica, isolate id (sample isolate): Co000771_1 | < 0.016
Neisseria oralis, isolate id (sample isolate): Co000761_7 | 0.064 (≈ 0.115 µM)
Neisseria oralis, isolate id (sample isolate): Co000763_1 | 0.032 (≈ 0.0577 µM)
Neisseria oralis, isolate id (sample isolate): Co000766_2 | 0.023 (≈ 0.0415 µM)
Neisseria oralis, isolate id (sample isolate): Co000770_1 | 0.064 (≈ 0.115 µM)
Neisseria oralis, isolate id (sample isolate): Co000774_1 | 0.032 (≈ 0.0577 µM)
Neisseria oralis, isolate id (sample isolate): Co000776_1 | 0.047 (≈ 0.0847 µM)
Neisseria oralis, isolate id (sample isolate): Co000776_1.1 | 0.047 (≈ 0.0847 µM)
Neisseria oralis, isolate id (sample isolate): Co000779_2 | 0.094 (≈ 0.169 µM)
Neisseria oralis, isolate id (sample isolate): Co000790_5 | 0.064 (≈ 0.115 µM)

Conditions | minimum inhibitory concentration [µg/mL]
Neisseria bacilliformis | 1.5 (≈ 2.7 µM)

— the supplement of paper PMC8741786
